Reference: patent US20080145372A1, “Bioreductively-Activated Prodrugs” (ANGIOGENE, PHARMACEUTICALS LIMITED, priority 2004, published 2008)

Assay: not given
Conditions: not given

Work on `O=C(Nc1ccn([C@@H]2O[C@H](CO)[C@@H](O)C2(F)F)c(=O)n1)OCc1ccc([N+](=O)[O-])s1` [Example 6, N^4-(5-nitrothien-2-yl)methoxycarbonyl-2′,2′-difluoro-2′-deoxycytidine] yielded a melting point of 144 to 148 °C.

Assay: Pulse radiolysis: fragmentation of radical anions
Conditions: prodrug 40 μM, N2O-saturated 50% aqueous 2-propanol, pH 7.4-9.0
Procedure: The rate of fragmentation of intermediate radical anions produced by one-electron reduction is an important determinant of bioreductive prodrug action and can be measured by pulse radiolysis. The magnitude of the rate constant of radical fragmentation indicates the ability of the prodrugs to deliver the drug under hypoxia. The radicals were generated by reduction of the parent prodrugs (40 μM) by the 2-propanol radical generated radiolytically in an N2O-saturated 50% aqueous 2-propanol buffered to pH 7.4-9.0 with potassium phosphate (4 mM). Experiments were performed with a 6 Me V linear accelerator to generate an electron pulse of around 500 ns.

Going from `CC(OC(=O)Nc1ccn([C@@H]2O[C@H](CO)[C@@H](O)[C@@H]2O)c(=O)n1)c1ccc([N+](=O)[O-])s1` (stereo partly drawn) [Example 1, N^4-(1-(5-nitrothien-2-yl)ethyl)oxycarbonyl-1-β-D-arabinofuranosylcytosine] to `O=C(Nc1ccn([C@@H]2O[C@H](CO)[C@@H](O)[C@@H]2O)c(=O)n1)OCc1ccc([N+](=O)[O-])s1` [Example 2, N^4-(5-nitrothien-2-yl)methoxycarbonyl-1-β-D-arabinofuranosylcytosine], the “First-order rate constant k for the decay of radical anions produced by pulse radiolysis” value (shortened to “First-order rate constant k”) falls from 49 s⁻¹ to 12 s⁻¹ (4.1-fold).

First: CC(OC(=O)Nc1ccn([C@@H]2O[C@H](CO)[C@@H](O)C2(F)F)c(=O)n1)c1ccc([N+](=O)[O-])s1 (stereo partly shown) [Example 3, N^4-(1-(5-nitrothien-2-yl)ethyl)oxycarbonyl-2′,2′-difluoro-2′-deoxycytidine]
Second: O=C(Nc1ccn([C@@H]2O[C@H](CO)[C@@H](O)C2(F)F)c(=O)n1)OCc1ccc([N+](=O)[O-])s1 [Example 6, N^4-(5-nitrothien-2-yl)methoxycarbonyl-2′,2′-difluoro-2′-deoxycytidine]
The “First-order rate constant k” value of the first is 5.1-fold higher: 102 s⁻¹ for the first, 20 s⁻¹ for the second.

First: CC(OC(=O)Nc1ccn([C@@H]2O[C@H](CO)[C@@H](O)[C@@H]2O)c(=O)n1)c1ccc([N+](=O)[O-])cc1 (stereo partly drawn) [Example 11, N^4-(1-(4-nitrophenyl)ethoxycarbonyl)-1-β-D-arabinofuranosylcytosine]
Second: O=C(Nc1ccn([C@@H]2O[C@H](CO)[C@@H](O)[C@@H]2O)c(=O)n1)OCc1ccc([N+](=O)[O-])o1 [Example 12, N^4-(5-nitrofuran-2-yl)methoxycarbonyl-1-β-D-arabinofuranosylcytosine]
The “First-order rate constant k” value of the first is 14-fold lower: 0.4 s⁻¹ for the first, 5.5 s⁻¹ for the second.

First: CC(=O)OC[C@H]1O[C@@H](n2ccc(NC(=O)OC(C)c3ccc([N+](=O)[O-])s3)nc2=O)[C@@H](OC(C)=O)[C@@H]1OC(C)=O (stereo partly drawn) [Example 4, Tri-O-acetyl-N^4-(1-(5-nitrothien-2-yl)ethyl)oxycarbonyl-1-β-D-arabinofuranosylcytosine]
Second: CC(=O)O[C@@H]1[C@H](OC(C)=O)[C@@H](C)O[C@H]1n1cc(F)c(NC(=O)OCc2ccc([N+](=O)O)s2)nc1=O [Example 9, 5′-Deoxy-2′,3′-di-O-acetyl-5-fluoro-N^4-((5-nitrothien-2-yl)methoxycarbonyl)cytidine]
The “First-order rate constant k” value of the first is 11-fold higher: 245 s⁻¹ for the first, 22 s⁻¹ for the second.

First: Cn1c(COC(=O)Nc2ccn([C@@H]3O[C@H](CO)[C@@H](O)C3(F)F)c(=O)n2)cnc1[N+](=O)[O-] [Example 5, N^4-(2-nitro-1-methylimidazol-5-yl)methoxycarbonyl-2′,2′-difluoro-2′-deoxycytidine]
Second: O=C(Nc1nc(F)nc2c1ncn2[C@@H]1O[C@H](CO)[C@@H](O)[C@@H]1O)OCc1ccc([N+](=O)[O-])s1 [Example 10, 2-fluoro-N^6-(5-nitrothien-2-yl)methoxycarbonyl-9-O-D-arabinofuranosyladenine]
The “First-order rate constant k” value of the first is 8-fold lower: 18 s⁻¹ for the first, 144 s⁻¹ for the second.

With `O=C(Nc1ncnc2c1ncn2[C@@H]1O[C@H](CO)[C@@H](O)[C@@H]1O)OCc1ccc([N+](=O)[O-])s1` [Example 8, N^6-(5-nitrothien-2-yl)methoxycarbonyl-9-β-D-arabinofuranosyladenine] the “First-order rate constant k” value was 148 s⁻¹.

For `O=C(Nc1ccn([C@@H]2O[C@H](CO)[C@@H](O)[C@@H]2O)c(=O)n1)OCc1ccc([N+](=O)[O-])cc1` [N^4-(4-nitrophenyl)methoxycarbonyl-1-β-D-arabinofuranosylcytosine, reference compound], the “First-order rate constant k” value was “too small to measure”.
